Assay results: patent US6166049A, “Use of an antagonist of PPARα and PPARγ for the treatment of syndrome X” (SmithKline Beecham P.L.C., priority 1996, dated 2000)

Columns and labels:
[1] = biological target: T1, human PPARα (Homo sapiens, UniProt Q07869); assay: hPPARα agonist activity, transactivation reporter gene assay; type: cell-based; conditions: read-out: EC50 for activation of human PPARα
T1 construct: expressed in transfected cells
T1 sequence (Q07869 239-466 limits assumed): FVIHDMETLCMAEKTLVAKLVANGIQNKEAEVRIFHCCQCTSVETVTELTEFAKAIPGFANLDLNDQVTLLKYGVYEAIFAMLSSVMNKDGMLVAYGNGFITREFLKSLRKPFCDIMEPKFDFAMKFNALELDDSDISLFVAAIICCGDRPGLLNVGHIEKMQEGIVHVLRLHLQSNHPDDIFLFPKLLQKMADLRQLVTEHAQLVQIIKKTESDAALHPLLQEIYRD
Text: (§1) PPARα and γ agonist activity may be assessed by use of the methodology, or similar methodology, to that disclosed by Lehmann et al: Journal of Biological Chem., 270, 12953-12956 (1995).
In one aspect PPARα agonist compounds are those which stimulate a PPAR alpha chimeric receptor consisting of the PPAR alpha ligand binding site linked to a suitable reporter gene construct such as luciferase or chloramphenicol acetyltransferase (CAT). This activity can be identified by using the methods outlined by Lehmann et al., ibid.
(a) PPARα agonist activity by detecting stimulation of a PPAR alpha chimeric receptor consisting of the PPAR alpha ligand binding site linked to a suitable reporter gene construct; and
A suitable PPARα chimeric receptor comprises the amino acids of the ligand binding domain, for example amino acids 281-468, of the human PPARα, fused to amino acids 1-147 (DNA binding domain) of the gal 4 yeast transcription factor.
(§2) A suitable reporter gene construct is a luciferase or chloramphenicol acetyltransferase (CAT).
A suitable luciferase reporter gene construct contains gal 4 DNA binding elements in HEK-293 cells.
1) Determination of hPPARα and hPPAR-γ Agonist Activity
(§3) Compound agonist effects at human PPARα and PPARγ were assessed using a transactivation reporter gene assay, based on that described by Lehman et al. (1995) J Biol Chem 270, 12953-12956.

[2] = biological target: T2, human PPARγ (Homo sapiens, UniProt P37231); assay: hPPARγ agonist activity, transactivation reporter gene assay; type: cell-based; conditions: read-out: EC50 for activation of human PPARγ
T2 construct: expressed in transfected cells
T2 sequence (P37231 173-476 isoform P37231-2): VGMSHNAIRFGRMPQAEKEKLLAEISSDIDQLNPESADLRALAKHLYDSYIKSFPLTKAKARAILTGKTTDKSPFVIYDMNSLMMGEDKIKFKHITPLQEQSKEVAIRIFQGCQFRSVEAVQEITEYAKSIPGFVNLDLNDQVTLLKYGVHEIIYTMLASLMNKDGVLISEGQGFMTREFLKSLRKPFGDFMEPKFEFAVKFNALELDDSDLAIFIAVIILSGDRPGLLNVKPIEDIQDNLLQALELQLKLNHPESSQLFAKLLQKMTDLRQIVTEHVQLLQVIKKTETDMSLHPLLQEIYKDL
Text: as §1
In one aspect PPARγ agonist compounds are those which stimulate a PPARγ chimeric receptor containing the PPAR gamma ligand binding site linked to a suitable reporter gene construct such as luciferase or chloramphenicol acetyltransferase (CAT). This activity can be identified by using the methods of Lehmann et al. J Biol. Chem., ibid.
(b) PPARγ agonist activity by detecting stimulation of a PPARγ chimeric receptor containing the PPAR gamma ligand binding site linked to a suitable reporter gene construct such as luciferase or chloramphenicol acetyltransferase (CAT).
A suitable PPARγ chimeric receptor comprises the amino acids of the ligand binding domain, for example amino acids 173-476, of the human PPARγ receptor fused to amino acids 1-147 (DNA binding domain) of the gal 4 yeast transcription factor.
as §2
A suitable luciferase reporter gene construct contains gal 4 DNA binding elements in HEK-293 cells. […]
as §3

[3] = tested on: C57 Bl/KsJ db/db mouse; assay: Blood glucose in the C57 Bl/KsJ db/db mouse; type: in vivo; conditions: mean ± SD, n = 9-10; for Blood glucose, pre-dose: treated group before dosing (baseline)
Procedure: (§4) 2) Determination of Compound Efficacy on Blood Glucose and Plasma Lipids in the C57 Bl/KsJ db/db Mouse
(§5) This is paralleled by glycosuria and polyuria with a compensatory increase in water intake. Circulating serum triglycerides and free fatty acids are also elevated.
(§6) Compounds are administered by dietary admixture (powdered RM3 diet) for 14 days and blood glucose measured in samples taken from the tail vein of conscious non-fasted mice at appropriate intervals during the treatment period. After the 14 day treatment period, mice are killed by cervical dislocation and blood obtained from the severed jugular veins. Triglyceride and non-esterified fatty acids are measured in samples of serum obtained by centrifugation.

[4] = tested on: C57 Bl/KsJ db/db mouse; assay: Serum lipids in the genetically diabetic C57 Bl/KsJ db/db mouse; type: in vivo; conditions: 0.3 umol/kg body wt, dietary admixture, after 14 days, *** p < 0.001, mean ± SD
Procedure: as §4, §5, §6

CN(CCOc1ccc(C[C@H](OCC(F)(F)F)C(=O)O)cc1)c1nc2ccccc2o1 [(S)-3-[4-[2-[N-(2-benzoxazolyl)-N-methylamino]ethoxy]phenyl]-2-(2,2,2-trifluoroethoxy)propanoic acid]
EC50 [1]: 2500 nM | EC50 [2]: 70 nM | Blood glucose, post dose (13 days) ([3]; EXPT I, dietary admixture, 13 days, control 34.0 ± 7.9, *** p < 0.001): 11.0 ± 3.6 mmol/L | Blood glucose, pre-dose ([3]; EXPT I, control 15.5 ± 3.7): 15.6 ± 4.0 mmol/L | Blood glucose, Day 1 ([3]; EXPT II, dietary admixture, Day 1, control 17.2 ± 3.7): 14.1 ± 3.7 mmo/l | Blood glucose, Day 2 ([3]; EXPT II, dietary admixture, Day 2, control 19.9 ± 2.7, ** p < 0.01): 15.0 ± 3.4 mmo/l | Blood glucose, Day 3 ([3]; EXPT II, dietary admixture, Day 3, control 20.2 ± 3.9, *** p < 0.001): 12.2 ± 5.1 mmo/l | Blood glucose, Day 5 ([3]; EXPT II, dietary admixture, Day 5, control 21.2 ± 1.9, *** p < 0.001): 11.3 ± 3.6 mmo/l | Blood glucose, Day 7 ([3]; EXPT II, dietary admixture, Day 7, control 23.4 ± 2.0, *** p < 0.001): 11.7 ± 3.7 mmo/l | Blood glucose, pre-dose ([3]; EXPT II, control 16.5 ± 2.9): 16.2 ± 4.3 mmo/l | Serum non-esterified fatty acids ([4]; control 2.58 ± 0.45): 1.28 ± 0.15 mmol/L | Serum triglycerides ([4]; control 3.78 ± 1.34): 2.58 ± 0.45 mmol/L
